Source: ChEMBL document CHEMBL5291721, “A preclinical secondary pharmacology resource illuminates target-adverse drug reaction associations of marketed drugs” (Nat Commun, 2023)

Key:
[1] = molecular target: T1, Alpha-1A adrenergic receptor (Homo sapiens, UniProt P35348)
T1 sequence (P35348 whole entry): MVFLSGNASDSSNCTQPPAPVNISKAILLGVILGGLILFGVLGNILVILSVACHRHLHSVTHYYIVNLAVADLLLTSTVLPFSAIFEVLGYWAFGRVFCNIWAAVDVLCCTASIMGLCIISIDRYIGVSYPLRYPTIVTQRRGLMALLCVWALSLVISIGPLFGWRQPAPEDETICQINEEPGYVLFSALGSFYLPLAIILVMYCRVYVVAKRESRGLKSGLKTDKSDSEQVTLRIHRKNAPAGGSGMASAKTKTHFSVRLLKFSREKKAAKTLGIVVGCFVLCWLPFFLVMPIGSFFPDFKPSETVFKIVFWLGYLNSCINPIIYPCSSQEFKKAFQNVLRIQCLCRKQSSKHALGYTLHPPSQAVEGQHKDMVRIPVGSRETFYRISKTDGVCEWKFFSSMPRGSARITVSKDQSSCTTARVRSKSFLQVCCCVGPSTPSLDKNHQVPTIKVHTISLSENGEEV

D(1A) dopamine receptor [2] = molecular target: T2, D(1A) dopamine receptor (Homo sapiens, UniProt P21728)
[3] = molecular target: T3, Muscarinic acetylcholine receptor M2 (Homo sapiens, UniProt P08172)
T3 sequence (P08172 whole entry): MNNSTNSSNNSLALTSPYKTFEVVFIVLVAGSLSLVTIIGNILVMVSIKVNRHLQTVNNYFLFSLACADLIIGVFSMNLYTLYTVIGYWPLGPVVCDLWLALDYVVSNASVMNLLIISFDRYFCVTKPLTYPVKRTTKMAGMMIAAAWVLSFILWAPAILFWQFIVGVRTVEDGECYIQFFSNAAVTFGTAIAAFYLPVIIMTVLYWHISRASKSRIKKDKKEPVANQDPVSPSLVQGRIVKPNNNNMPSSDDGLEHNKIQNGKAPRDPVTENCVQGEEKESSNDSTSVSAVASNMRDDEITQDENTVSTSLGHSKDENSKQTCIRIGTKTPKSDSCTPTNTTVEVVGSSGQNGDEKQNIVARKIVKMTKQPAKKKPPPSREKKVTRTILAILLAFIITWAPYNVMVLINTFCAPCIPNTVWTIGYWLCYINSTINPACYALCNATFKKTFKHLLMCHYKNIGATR

[4] = molecular target: Rod cGMP-specific 3',5'-cyclic phosphodiesterase subunit alpha (Homo sapiens, UniProt P16499); format: functional
Androgen receptor = molecular target: T4, Androgen receptor (Rattus norvegicus, UniProt P15207); format: functional
T4 sequence (P15207 whole entry): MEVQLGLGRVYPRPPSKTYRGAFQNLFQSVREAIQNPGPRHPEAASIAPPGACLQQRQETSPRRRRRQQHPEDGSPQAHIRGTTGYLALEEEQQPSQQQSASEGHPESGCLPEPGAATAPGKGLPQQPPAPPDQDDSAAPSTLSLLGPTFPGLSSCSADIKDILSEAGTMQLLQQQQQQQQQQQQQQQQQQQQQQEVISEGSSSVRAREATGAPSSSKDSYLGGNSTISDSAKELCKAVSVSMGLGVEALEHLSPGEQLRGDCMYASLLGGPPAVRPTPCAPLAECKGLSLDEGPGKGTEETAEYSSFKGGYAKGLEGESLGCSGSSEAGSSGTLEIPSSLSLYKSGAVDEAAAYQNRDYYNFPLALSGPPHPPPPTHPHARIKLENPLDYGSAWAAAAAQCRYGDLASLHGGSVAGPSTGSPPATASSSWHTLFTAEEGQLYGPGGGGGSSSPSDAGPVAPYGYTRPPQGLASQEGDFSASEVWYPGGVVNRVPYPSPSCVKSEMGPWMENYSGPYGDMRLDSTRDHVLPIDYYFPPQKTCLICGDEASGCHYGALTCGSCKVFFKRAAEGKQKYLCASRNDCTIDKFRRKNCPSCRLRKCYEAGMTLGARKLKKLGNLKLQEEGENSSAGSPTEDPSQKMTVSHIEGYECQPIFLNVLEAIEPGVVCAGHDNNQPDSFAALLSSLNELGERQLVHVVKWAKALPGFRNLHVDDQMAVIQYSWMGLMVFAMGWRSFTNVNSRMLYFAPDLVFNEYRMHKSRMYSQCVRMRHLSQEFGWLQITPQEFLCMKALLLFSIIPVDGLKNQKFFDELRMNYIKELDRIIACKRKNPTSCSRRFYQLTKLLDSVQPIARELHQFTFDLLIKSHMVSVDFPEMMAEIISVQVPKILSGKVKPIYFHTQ

D(1A) dopamine receptor [5] = molecular target: T2, D(1A) dopamine receptor; remark: listed apart in the source
[6] = molecular target: Epidermal growth factor receptor (Homo sapiens, UniProt P00533); format: functional
Histamine H1 receptor = Histamine H1 receptor (Homo sapiens, UniProt P35367); format: functional, cell-based
[7] = molecular target: Receptor tyrosine-protein kinase erbB-2 (Homo sapiens, UniProt P04626); format: functional
[8] = molecular target: T5, Peroxisome proliferator-activated receptor alpha (Homo sapiens, UniProt Q07869); format: functional
T5 sequence (Q07869 whole entry): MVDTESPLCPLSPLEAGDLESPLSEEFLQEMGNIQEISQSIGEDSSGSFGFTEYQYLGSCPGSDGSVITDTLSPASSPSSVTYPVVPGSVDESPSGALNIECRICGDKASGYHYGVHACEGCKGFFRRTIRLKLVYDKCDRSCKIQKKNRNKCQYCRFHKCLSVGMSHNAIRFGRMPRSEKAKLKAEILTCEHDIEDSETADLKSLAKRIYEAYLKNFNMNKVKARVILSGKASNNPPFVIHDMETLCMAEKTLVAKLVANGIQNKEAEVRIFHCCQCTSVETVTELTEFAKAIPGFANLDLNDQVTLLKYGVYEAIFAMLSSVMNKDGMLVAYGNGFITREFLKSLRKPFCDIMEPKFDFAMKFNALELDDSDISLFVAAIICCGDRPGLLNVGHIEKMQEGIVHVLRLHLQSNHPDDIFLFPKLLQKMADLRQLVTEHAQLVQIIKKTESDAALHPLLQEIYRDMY
Note: assay procedure not described here.

Sequence of Histamine H1 receptor (P35367 whole entry): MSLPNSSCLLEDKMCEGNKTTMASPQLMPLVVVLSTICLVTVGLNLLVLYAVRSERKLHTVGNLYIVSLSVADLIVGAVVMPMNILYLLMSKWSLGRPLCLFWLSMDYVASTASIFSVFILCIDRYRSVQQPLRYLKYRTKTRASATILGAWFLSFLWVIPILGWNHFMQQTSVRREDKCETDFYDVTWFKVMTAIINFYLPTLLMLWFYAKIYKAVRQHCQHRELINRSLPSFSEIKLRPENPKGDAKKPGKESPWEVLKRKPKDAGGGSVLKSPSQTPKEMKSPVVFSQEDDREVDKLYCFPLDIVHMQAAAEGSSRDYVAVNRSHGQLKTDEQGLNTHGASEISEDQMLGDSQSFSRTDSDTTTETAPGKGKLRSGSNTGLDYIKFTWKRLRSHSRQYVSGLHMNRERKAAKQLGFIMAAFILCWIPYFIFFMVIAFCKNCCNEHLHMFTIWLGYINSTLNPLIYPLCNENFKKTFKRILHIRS
Sequence of Receptor tyrosine-protein kinase erbB-2 (P04626 whole entry): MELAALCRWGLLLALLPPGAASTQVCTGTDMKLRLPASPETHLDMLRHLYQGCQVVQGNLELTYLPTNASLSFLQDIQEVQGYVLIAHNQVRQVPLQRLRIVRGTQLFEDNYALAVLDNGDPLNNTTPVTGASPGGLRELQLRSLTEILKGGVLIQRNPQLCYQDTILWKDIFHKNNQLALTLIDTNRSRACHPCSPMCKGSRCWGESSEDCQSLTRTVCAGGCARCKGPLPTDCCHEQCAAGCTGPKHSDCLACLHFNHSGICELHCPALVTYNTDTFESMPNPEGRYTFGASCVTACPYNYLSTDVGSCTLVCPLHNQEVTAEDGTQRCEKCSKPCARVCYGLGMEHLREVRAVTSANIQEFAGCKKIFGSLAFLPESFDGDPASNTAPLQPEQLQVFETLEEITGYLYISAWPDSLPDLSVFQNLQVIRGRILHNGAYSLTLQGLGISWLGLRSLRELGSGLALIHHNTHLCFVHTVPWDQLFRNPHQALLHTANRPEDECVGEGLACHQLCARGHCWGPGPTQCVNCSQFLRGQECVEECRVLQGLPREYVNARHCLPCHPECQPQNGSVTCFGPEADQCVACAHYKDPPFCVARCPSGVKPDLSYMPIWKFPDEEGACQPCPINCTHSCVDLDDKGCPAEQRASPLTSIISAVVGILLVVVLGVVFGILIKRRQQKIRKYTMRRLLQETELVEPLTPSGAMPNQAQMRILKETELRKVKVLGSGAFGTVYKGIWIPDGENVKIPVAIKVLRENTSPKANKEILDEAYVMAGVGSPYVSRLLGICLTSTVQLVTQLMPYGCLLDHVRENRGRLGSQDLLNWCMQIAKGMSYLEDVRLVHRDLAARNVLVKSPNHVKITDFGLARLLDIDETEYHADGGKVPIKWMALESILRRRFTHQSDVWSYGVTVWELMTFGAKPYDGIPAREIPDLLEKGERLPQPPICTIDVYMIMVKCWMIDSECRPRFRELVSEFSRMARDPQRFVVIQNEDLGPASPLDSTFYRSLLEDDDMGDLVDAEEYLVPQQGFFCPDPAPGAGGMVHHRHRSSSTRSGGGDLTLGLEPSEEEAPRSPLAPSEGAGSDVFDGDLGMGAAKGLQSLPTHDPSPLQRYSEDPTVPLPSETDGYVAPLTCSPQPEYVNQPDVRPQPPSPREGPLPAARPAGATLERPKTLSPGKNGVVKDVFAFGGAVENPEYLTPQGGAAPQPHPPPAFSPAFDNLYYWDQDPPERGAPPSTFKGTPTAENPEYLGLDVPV
Sequence of Rod cGMP-specific 3',5'-cyclic phosphodiesterase subunit alpha (P16499 whole entry): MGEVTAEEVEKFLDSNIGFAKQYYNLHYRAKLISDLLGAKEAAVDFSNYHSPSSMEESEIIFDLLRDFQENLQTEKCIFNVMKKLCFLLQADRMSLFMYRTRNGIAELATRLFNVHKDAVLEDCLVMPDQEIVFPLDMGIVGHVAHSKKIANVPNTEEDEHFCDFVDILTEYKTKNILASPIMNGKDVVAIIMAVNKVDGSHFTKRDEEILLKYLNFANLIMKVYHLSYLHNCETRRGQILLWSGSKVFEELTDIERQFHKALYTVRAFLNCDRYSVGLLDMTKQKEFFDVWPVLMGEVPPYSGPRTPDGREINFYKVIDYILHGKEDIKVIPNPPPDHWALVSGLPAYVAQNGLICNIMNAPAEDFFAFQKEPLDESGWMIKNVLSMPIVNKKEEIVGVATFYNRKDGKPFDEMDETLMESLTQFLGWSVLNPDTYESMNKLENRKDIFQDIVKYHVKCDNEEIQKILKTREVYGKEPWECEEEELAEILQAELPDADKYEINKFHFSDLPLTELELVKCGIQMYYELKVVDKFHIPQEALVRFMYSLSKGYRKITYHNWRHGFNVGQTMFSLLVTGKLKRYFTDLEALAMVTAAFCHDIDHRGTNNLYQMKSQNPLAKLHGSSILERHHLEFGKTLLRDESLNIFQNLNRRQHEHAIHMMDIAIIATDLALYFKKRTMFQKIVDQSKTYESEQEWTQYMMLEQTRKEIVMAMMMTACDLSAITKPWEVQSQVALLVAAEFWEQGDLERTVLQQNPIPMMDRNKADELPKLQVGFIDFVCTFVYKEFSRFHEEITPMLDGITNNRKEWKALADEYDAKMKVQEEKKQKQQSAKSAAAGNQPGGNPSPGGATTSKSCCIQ
Sequence of Epidermal growth factor receptor (P00533 whole entry): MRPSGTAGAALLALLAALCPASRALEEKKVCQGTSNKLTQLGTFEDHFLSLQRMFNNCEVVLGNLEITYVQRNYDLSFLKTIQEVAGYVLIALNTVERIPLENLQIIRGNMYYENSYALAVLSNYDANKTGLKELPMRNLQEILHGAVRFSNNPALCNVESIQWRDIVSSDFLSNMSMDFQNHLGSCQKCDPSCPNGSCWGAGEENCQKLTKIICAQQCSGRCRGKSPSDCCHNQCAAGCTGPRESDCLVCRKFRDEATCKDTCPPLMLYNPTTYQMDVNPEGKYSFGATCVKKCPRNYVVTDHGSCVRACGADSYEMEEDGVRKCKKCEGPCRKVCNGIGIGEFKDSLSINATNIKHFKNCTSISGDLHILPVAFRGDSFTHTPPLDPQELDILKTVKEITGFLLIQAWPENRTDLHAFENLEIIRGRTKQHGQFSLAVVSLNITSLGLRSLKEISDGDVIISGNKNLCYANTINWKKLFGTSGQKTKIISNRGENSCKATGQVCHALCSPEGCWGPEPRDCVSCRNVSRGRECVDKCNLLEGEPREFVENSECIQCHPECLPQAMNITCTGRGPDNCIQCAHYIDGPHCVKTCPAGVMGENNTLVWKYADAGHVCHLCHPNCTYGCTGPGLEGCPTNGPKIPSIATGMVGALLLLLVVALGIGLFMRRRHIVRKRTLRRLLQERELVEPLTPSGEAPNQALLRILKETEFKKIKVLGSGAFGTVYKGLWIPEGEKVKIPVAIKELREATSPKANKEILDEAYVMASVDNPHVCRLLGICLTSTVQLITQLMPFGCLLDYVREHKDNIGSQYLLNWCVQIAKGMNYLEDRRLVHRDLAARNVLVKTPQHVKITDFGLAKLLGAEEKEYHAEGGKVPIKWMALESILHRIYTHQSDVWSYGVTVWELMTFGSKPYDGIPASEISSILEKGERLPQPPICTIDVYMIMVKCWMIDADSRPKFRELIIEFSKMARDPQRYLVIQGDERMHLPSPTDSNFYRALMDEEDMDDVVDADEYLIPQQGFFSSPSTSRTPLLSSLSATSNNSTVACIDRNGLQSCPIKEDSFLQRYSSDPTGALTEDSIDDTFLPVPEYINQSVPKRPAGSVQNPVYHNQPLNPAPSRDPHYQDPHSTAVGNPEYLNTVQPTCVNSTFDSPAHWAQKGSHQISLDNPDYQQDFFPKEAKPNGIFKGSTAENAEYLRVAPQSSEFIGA
T2 sequence (P21728 whole entry): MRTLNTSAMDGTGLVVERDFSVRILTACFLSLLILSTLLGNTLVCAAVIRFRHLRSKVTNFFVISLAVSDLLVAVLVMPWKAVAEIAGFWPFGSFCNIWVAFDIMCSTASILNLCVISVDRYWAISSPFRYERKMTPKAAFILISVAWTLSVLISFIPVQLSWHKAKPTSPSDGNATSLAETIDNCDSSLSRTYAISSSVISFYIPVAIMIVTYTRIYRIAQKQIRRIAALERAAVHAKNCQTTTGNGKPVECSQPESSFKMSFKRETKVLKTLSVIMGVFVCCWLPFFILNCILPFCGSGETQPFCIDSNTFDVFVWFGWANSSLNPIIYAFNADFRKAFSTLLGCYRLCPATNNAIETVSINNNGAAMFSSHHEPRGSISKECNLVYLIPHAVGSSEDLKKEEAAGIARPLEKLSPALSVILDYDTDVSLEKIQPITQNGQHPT

Which results are given for `Cc1cc2c(cc1CC(=O)c1sccc1S(=O)(=O)Nc1onc(C)c1Cl)OCO2` [SITAXENTAN]?
AC50 [1]: > 30 µM; AC50 (D(1A) dopamine receptor [2]): > 30 µM

What does the source list for `Nc1nc(N)c2nc(-c3ccccc3)c(N)nc2n1`?
AC50 [3]: > 30 µM; AC50 [4]: > 10 µM; AC50 (Androgen receptor): > 3 µM; AC50 (D(1A) dopamine receptor [5]): > 30 µM

With `NS(=O)(=O)c1cc2c(cc1Cl)NCNS2(=O)=O` [HYDROCHLOROTHIAZIDE] as the compound, how does the AC50 [4] read?
Its AC50 is over 10 µM.

Which AC50 [1] does the source give for `CC(=O)OCC(=O)[C@@]1(O)CC[C@H]2[C@@H]3CCC4=CC(=O)CC[C@]4(C)[C@H]3C(=O)C[C@@]21C` [CORTISONE ACETATE] here?
Its AC50 is over 30 µM.

With `COC(=O)[C@@H]1CC2=CC(=O)CC[C@]2(C)[C@@]23O[C@@H]2C[C@@]2(C)[C@@H](CC[C@@]24CCC(=O)O4)[C@H]13` [EPLERENONE] as the compound, how does the AC50 [6] read?
The AC50 was over 30 µM.

What about the AC50 (Histamine H1 receptor) of the same compound?
The AC50 was over 30 µM.

And the AC50 [7]?
The AC50 was over 30 µM.

What does the source list for `CC(C)C(=O)Nc1ccc([N+](=O)[O-])c(C(F)(F)F)c1` [FLUTAMIDE]?
AC50 [3]: > 30 µM; AC50 (D(1A) dopamine receptor [5]): > 30 µM

How did the AC50 [8] turn out when `C#C[C@]1(O)CC[C@H]2[C@@H]3CCc4cc(O)ccc4[C@H]3CC[C@@]21C` [ETHINYL ESTRADIOL] was run?
The AC50 was over 30 µM.

With `CCC(=O)O[C@H]1[C@H](O[C@@H]2[C@@H](C)[C@H](O[C@H]3C[C@@](C)(OC)[C@@H](O)[C@H](C)O3)[C@@H](C)C(=O)O[C@H](CC)[C@@](C)(O)[C@H](O)[C@@H](C)C(=O)[C@H](C)C[C@@]2(C)O)O[C@H](C)C[C@@H]1N(C)C` [ERYTHROMYCIN PROPIONATE] as the compound, how does the AC50 [1] read?
Its AC50 is over 30 µM.

What about the AC50 (D(1A) dopamine receptor [2]) of the same compound?
Its AC50 is 17 µM.

With `CC(C)NNC(=O)c1ccncc1` [IPRONIAZID] as the compound, how does the AC50 [6] read?
The AC50 was over 30 µM.

What about the AC50 [7] of the same compound?
The AC50 was over 30 µM.

For `COC(=O)N[C@H](C(=O)N1CCC[C@H]1c1nc(-c2ccc(-c3ccc(-c4c[nH]c([C@@H]5CCCN5C(=O)[C@@H](NC(=O)OC)C(C)C)n4)cc3)cc2)c[nH]1)C(C)C`, which AC50 (Androgen receptor) is on record?
Its AC50 is over 30 µM.

With `CO/N=C(\C(=O)N[C@@H]1C(=O)N2C(C(=O)[O-])=C(C[N+]3(C)CCCC3)CS[C@H]12)c1csc(N)n1` as the compound, how does the AC50 [6] read?
Its AC50 is over 300 µM.

And the AC50 (Androgen receptor)?
The AC50 was over 30 µM.

What about the AC50 [7] of the same compound?
Its AC50 is over 300 µM.

With `CCOC(=O)[C@H](CCc1ccccc1)N[C@@H](C)C(=O)N1CCC[C@H]1C(=O)O` as the compound, how does the AC50 [4] read?
Its AC50 is over 10 µM.

`O=C(CCCCCCC(=O)Nc1ccccc1)NO` [VORINOSTAT] was tested. Which AC50 (Histamine H1 receptor) did it give?
The AC50 was over 30 µM.

For `CCCS(=O)(=O)Nc1ccc(F)c(C(=O)c2c[nH]c3ncc(-c4ccc(Cl)cc4)cc23)c1F` [VEMURAFENIB], which AC50 (Androgen receptor) is on record?
Its AC50 is over 30 µM.

Which AC50 (Histamine H1 receptor) does the source give for `CC(C(=O)O)c1ccc(N2CC=CC2)c(Cl)c1` (centres undefined) [PIRPROFEN] here?
The AC50 was over 30 µM.

With `CC(C)Cc1ccc(CC(=O)O)cc1` [IBUFENAC] as the compound, how does the AC50 [6] read?
The AC50 was over 30 µM.

What about the AC50 [7] of the same compound?
The AC50 was over 30 µM.

Which AC50 [4] does the source give for `NC(N)=Nc1nc(CSCCC(N)=NS(N)(=O)=O)cs1` [FAMOTIDINE] here?
Its AC50 is over 10 µM.

`Oc1ncnc2[nH]ncc12` [ALLOPURINOL] was tested. Which AC50 [3] did it give?
The AC50 was over 30 µM.

And the AC50 (D(1A) dopamine receptor [5])?
The AC50 was over 30 µM.

Which AC50 [3] does the source give for `NC(=O)c1cnccn1` [PYRAZINAMIDE] here?
The AC50 was over 30 µM.

What about the AC50 (D(1A) dopamine receptor [5]) of the same compound?
The AC50 was over 30 µM.

What does the source list for `COc1ccc2c(c1)C(=O)N(CCc1ccc(S(=O)(=O)NC(=O)NC3CCCCC3)cc1)C(=O)C2(C)C` [GLIQUIDONE]?
AC50 [8]: > 30 µM; AC50 (Androgen receptor): > 30 µM

With `CC(=O)c1ccc2c(c1)N(CCCN1CCN(CCO)CC1)c1ccccc1S2` [ACETOPHENAZINE] as the compound, how does the AC50 (D(1A) dopamine receptor [5]) read?
Its AC50 is 0.1 µM.

What does the source list for `OC[C@@H](O)[C@@H](O)[C@H](O)[C@H](O)CO` [MANNITOL]?
AC50 [1]: > 30 µM; AC50 (D(1A) dopamine receptor [2]): > 30 µM

With `O=C(NC[C@H]1CN(c2ccc(N3CCOCC3=O)cc2)C(=O)O1)c1ccc(Cl)s1` [RIVAROXABAN] as the compound, how does the AC50 [8] read?
Its AC50 is over 30 µM.
